These results are taken from patent US8163718B2, “Nucleoside analogues containing phosphonate or phosphonamide groups” (Gilead Sciences, Inc., priority 2008, dated 2012).

What all share (assay): Cytostatic cell culture assay (GI50), SRB
Holding throughout (format): cell-based

For one experiment, the system named is A549. As to conditions: 5 days incubation. An outline of the steps:
(§1)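 Cells were seeded and incubated overnight at 37 °C, then exposed for 5 days at 37 °C to 5-fold serial dilutions of compound. After fixation with cold 10% TCA, cells were stained with 0.057% SRB, and the dye was solubilized in 10 mM Tris pH 10.5 and read at OD 500 nm. GI50 came from sigmoidal dose-response fits.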

In the next experiment the test system is BT-549. Particulars: 5 days incubation. The gist of the method: as §1
A further experiment has as its system Du-145. As to conditions: 5 days incubation. An outline of the steps:
as §1

Another experiment deals with HCT-116. As to conditions: 5 days incubation. The gist of the method:
as §1

Another experiment has as its system HCT-15. As to conditions: Homo sapiens, HCT-15, 120 h; 5 days incubation. The gist of the method:
as §1

A further experiment deals with Hs-578. Particulars: 5 days incubation. The gist of the method: as §1
For the next experiment, the system named is NCI-H23. As to conditions: 5 days incubation. An outline of the steps:
as §1

Another experiment deals with PC3. As to conditions: 5 days incubation. The gist of the method: as §1

Consider `CCCCOc1nc(N)nc2c1ncn2CCOCP(=O)(O)O` [Example 4, [2-(2-Amino-6-butoxy-purin-9-yl)-ethoxymethyl]-phosphonic acid], for which the GI50 stood at 4540 nM with A549 (Homo sapiens, A549, 120 h); 3760 nM in the experiment with BT-549 (Homo sapiens, BT-549, 120 h); 235 nM with Du-145 (Homo sapiens, DU-145, 120 h); 3130 nM with HCT-116 (Homo sapiens, HCT-116, 120 h); 2980 nM in the experiment with HCT-15; 3320 nM in the experiment on Hs-578 (Hs578, 120 h). The GI50 is 633 nM in the experiment on NCI-H23 (Homo sapiens, NCI-H23, 120 h) and 1440 nM in the experiment on PC3 (Homo sapiens, PC-3, 120 h).
For the compound `CCCOc1nc(N)nc2c1ncn2CCOCP(=O)(N[C@@H](C)C(=O)OCC)Oc1ccccc1` (single isomer, unassigned) [Example 53a], the GI50 with A549 came to 268 nM; in the experiment with BT-549, 249 nM; in the experiment with Du-145, 2 nM; in the experiment with HCT-116, 154 nM; with HCT-15 it was 2110 nM; with Hs-578, 62 nM. In addition, the figures for the GI50 in the experiment with NCI-H23 and with PC3 were 5 nM and 31 nM, respectively.
Turning to `CCCOc1nc(N)nc2c1ncn2CCOCP(=O)(N[C@@H](C)C(=O)OC(C)C)N[C@@H](C)C(=O)OC(C)C` [Example 16], the concentration for 50% growth inhibition (GI50) was 736 nM in the experiment with A549 (Homo sapiens, A549, 120 h); 1830 nM with BT-549 (Homo sapiens, BT-549, 120 h); 67 nM in the experiment with Du-145 (Homo sapiens, DU-145, 120 h); 1320 nM in the experiment with HCT-116 (Homo sapiens, HCT-116, 120 h); above 10000 nM in the experiment with HCT-15; 870 nM with Hs-578 (Hs578, 120 h). The concentration for 50% growth inhibition (GI50) worked out at 92 nM in the experiment with NCI-H23 (Homo sapiens, NCI-H23, 120 h) and 591 nM with PC3 (Homo sapiens, PC-3, 120 h).
As to `COc1nc(N)nc2c1ncn2CCOCP(=O)(O)O` [Example 2, [2-(2-Amino-6-methoxy-purin-9-yl)-ethoxymethyl]-phosphonic acid], the GI50 in the experiment on A549 (Homo sapiens, A549, 120 h) turned out to be 2420 nM; in the experiment on BT-549 (Homo sapiens, BT-549, 120 h), 4870 nM; in the experiment on Du-145 (Homo sapiens, DU-145, 120 h), 475 nM; in the experiment with HCT-116 (Homo sapiens, HCT-116, 120 h), 5900 nM; in the experiment with HCT-15, 4650 nM; in the experiment on Hs-578 (Hs578, 120 h), 2010 nM. Moreover, the 50% growth inhibitory concentration (GI50) with NCI-H23 (Homo sapiens, NCI-H23, 120 h) stood at 589 nM; with PC3 (Homo sapiens, PC-3, 120 h) it was 3700 nM.
